The test system of assay [1] is Human alphaherpesvirus 1. As to the kind of experiment: Antiherpes activity was tested as percent of control of plaque-formation against HSV-1 (KOS) virus by 5 uM of the compound. Type of assay: functional.
Assay [2] deals with Human alphaherpesvirus 1. The assay can be described thus: Antiherpes activity was tested as percent of control of plaque-formation against ACG (S1) virus by 5 uM of the compound. Type of assay: functional, acycloguanosine resistant strain.
Assay [3] has as its system Human alphaherpesvirus 1. The assay can be described thus: Antiherpes activity was tested as percent of control of plaque-formation against BVdUr virus by 5 uM of the compound. Type of assay: functional, bromovinyl deoxyuridine resistant strain.
The subject of assay [4] is Human alphaherpesvirus 1. As to the kind of experiment: Antiherpes activity was tested as percent of control of plaque-formation against ACG (Tr7) virus by 5 uM of the compound. In kind it is functional, acycloguanosine resistant strain.
Assay [5] is described as follows: Antiherpes activity was tested as percent of control of plaque-formation against PFAr virus by 5 uM of the compound. In kind it is functional, Herpes simplex virus unknown type.
The subject of assay [6] is Human alphaherpesvirus 1. The assay can be described thus: Antiherpes activity was tested as percent of control of plaque-formation against ACG (Tr7) virus by 30 uM of the compound. In kind it is functional, acycloguanosine resistant strain.
Assay [7] deals with Human alphaherpesvirus 1. The assay can be described thus: Antiherpes activity was tested as percent of control of plaque-formation against ACG (S1) virus by 30 uM of the compound. In kind it is functional, acycloguanosine resistant strain.
Assay [8] has as its system Human alphaherpesvirus 1. The assay can be described thus: Antiherpes activity was tested as percent of control of plaque-formation against HSV-1 (CL101) virus by 30 uM of the compound. In kind it is functional.
Assay [9] deals with Human alphaherpesvirus 2. As to the kind of experiment: Antiherpes activity was tested as percent of control of plaque-formation against HSV-2 (333) virus by 30 uM of the compound. In kind it is functional.
In assay [10] the test system is Human alphaherpesvirus 1. The assay can be described thus: Antiherpes activity was tested as percent of control of plaque-formation against HSV-1 (KOS) virus by 30 uM of the compound. Type of assay: functional.
In assay [11] the test system is Human alphaherpesvirus 1. As to the kind of experiment: Antiherpes activity was tested as percent of control of plaque-formation against BVdUr virus by 30 uM of the compound. Type of assay: functional, bromovinyl deoxyuridine resistant strain.
For assay [12], the system named is Human alphaherpesvirus 1. As to the kind of experiment: Antiherpes activity was tested as percent of control of plaque-formation against ACG (S1) virus by 100 uM of the compound. In kind it is functional, acycloguanosine resistant strain.
Assay [13] deals with Human alphaherpesvirus 2. As to the kind of experiment: Antiherpes activity was tested as percent of control of plaque-formation against HSV-2 (CEU-G) virus by 100 uM of the compound. In kind it is functional.
Assay [14] has as its system Human alphaherpesvirus 1. The assay can be described thus: Antiherpes activity was tested as percent of control of plaque-formation against BVdUr virus by 100 uM of the compound. Type of assay: functional, bromovinyl deoxyuridine resistant strain.
The subject of assay [15] is Human alphaherpesvirus 1. As to the kind of experiment: Binding affinity against HSV-1(KOS). In kind it is functional, organism-based.
Assay [16] deals with Human alphaherpesvirus 2. As to the kind of experiment: Binding affinity against HSV-2(333). Type of assay: functional, organism-based.
Assay [17] concerns Human alphaherpesvirus 1. As to the kind of experiment: Antiherpes activity was tested as percent of control of plaque-formation against HSV-1 (KOS) virus by 100 uM of the compound. In kind it is functional.
Assay [18] has as its system Human alphaherpesvirus 2. The assay can be described thus: Antiherpes activity was tested as percent of control of plaque-formation against HSV-2 (333) virus by 100 uM of the compound. In kind it is functional.
Assay [19] has as its system Human alphaherpesvirus 1. The assay can be described thus: Antiherpes activity was tested as percent of control of plaque-formation against ACG (Tr7) virus by 100 uM of the compound. Type of assay: functional, acycloguanosine resistant strain.
Assay [20] concerns Human alphaherpesvirus 1. The assay can be described thus: Antiherpes activity was tested as percent of control of plaque-formation against HSV-1 (CL101) virus by 100 uM of the compound. In kind it is functional.
Assay [21] in a line: Antiherpes activity was tested as percent of control of plaque-formation against PFAr virus by 100 uM of the compound. In kind it is functional, Herpes simplex virus unknown type.

From ChEMBL document CHEMBL1122901, “Synthesis and biological activities of 2-pyrimidinone nucleosides. 2. 5-Halo-2-pyrimidinone 2'-deoxyribonucleosides” (J Med Chem, 1985) come the findings set out here.

Broadly, the Ki is the dissociation constant of the complex between target and ligand, obtained from inhibition or displacement. Lower therefore signals higher affinity.

As for `Nc1nc2c(ncn2COCCO)c(=O)[nH]1` [ACYCLOVIR], the Control in assay [1] is 6.5%; in assay [2] it was 100%; in assay [3], 0.7%; in [4] it was 85%; in assay [5] it was 100%.
On to `O=c1[nH]c(=O)n([C@H]2C[C@H](O)[C@@H](CO)O2)cc1/C=C/Br` [BRIVUDINE], for which the Control in assay [6] came to 0.8%; in [7], 3.7%; in [8], 0.4%; in [9], 1.7%; in assay [10], 0.1%; in assay [11] it was 52%.
With `O=c1[nH]c(=O)n([C@H]2C[C@H](O)[C@@H](CO)O2)cc1I` [IDOXURIDINE], the Control in assay [12] is listed as 22%; in [13], 9.3%; in assay [14], 14%; in assay [17], 0.27%; in [18] it was 2.8%; in [19] it was 2.6%. Further, the Control in assay [20] was 1.6%; in assay [21], 0.1%. For the same compound, the Ki was found to be 1.84 µM in assay [15] and 3.98 µM in assay [16].
